Experimental data: patent US20240262814A1, “MODULATORS OF TREX1” (Constellation Pharmaceuticals, Inc., priority 2021, published 2024)
pIC50: −log10 of the molar value.

Key:
human TREX2 = molecular target: T1, human TREX2 (Homo sapiens, UniProt Q9BQ50); test: hTREX2 Biochemical Assay (selectivity hTREX1 vs hTREX2); details: biochemical selectivity for hTREX1 vs hTREX2
T1 construct: human TREX2 (residues M44-A279, expressed in E. coli); made in house; host or cells: E. coli
T1 sequence (Q9BQ50 44-279 isoform Q9BQ50-1): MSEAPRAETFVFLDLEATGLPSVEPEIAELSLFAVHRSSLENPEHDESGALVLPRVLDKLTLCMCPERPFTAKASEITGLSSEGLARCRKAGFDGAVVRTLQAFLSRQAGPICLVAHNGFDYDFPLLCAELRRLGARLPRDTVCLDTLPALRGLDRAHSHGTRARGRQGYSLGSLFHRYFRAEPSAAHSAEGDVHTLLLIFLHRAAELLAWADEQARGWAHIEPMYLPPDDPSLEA
Experimental: Degradation of the dsDNA liberates free fluorophore to produce a fluorescent signal. Specifically, 7.5 p L of N-terminally His-Tev tagged human TREX2 (residues M44-A279, expressed in E. coli and purified in house) in reaction buffer (50 mM Tris, 150 mM NaCl, 2 mM DTT, 0.1 mg/mL BSA, 0.01% (w/v) Tween-20, 5 mM MgCl2, pH 7.4) was added to a 384-well Black ProxiPlate Plus (PerkinElmer) which already contained compound (150 nL) at varying concentrations as a 10 point dose-response in DMSO. The plate was incubated at 25° C. for 4 hours. Reactions were initiated by adding 7.5 μL of dsDNA substrate (Strand A: 5′ TEX615/GCT AGG CAG 3′; Strand B: 5′ CTG CCT AGC/IAbRQSp (IDT)) in reaction buffer. Final concentrations were 50 pM TREX2, 60 nM dsDNA substrate in reaction buffer with 1.0% DMSO (v/v). After 18 hours at 25° C., reactions were quenched by the addition of 2 μL of 500 mM EDTA. Final concentrations in the quenched reaction mixture were 44 pM TREX2, 53 nM DNA and 59 mM EDTA in a volume of 17 μL. After a 5-minute incubation at room temperature, plates were read in an EnVision plate reader (PerkinElmer) measuring fluorescence at 615 nm following excitation w/ 570 nm light. IC50 values were calculated by comparing the measured fluorescence at 615 nm relative to control wells pre-quenched w/ stop buffer (100% inhibition) and no inhibitor (0% inhibition) controls as using non-linear least square four parameter fits and either Genedata or GraphPad Prism (GraphPad Software, Inc.).

mouse TREX1 = molecular target: T2, mouse TREX1 (Mus musculus, UniProt Q91XB0); test: mTREX1 Biochemical Assay (fluorescence, dsDNA substrate degradation); details: full length mouse TREX1, 4 h pre-incubation, 18 h reaction at 25° C.
T2 construct: N-terminally His-Tev tagged full length mouse TREX1; made in house; host or cells: E. coli
T2 sequence (Q91XB0 1-314): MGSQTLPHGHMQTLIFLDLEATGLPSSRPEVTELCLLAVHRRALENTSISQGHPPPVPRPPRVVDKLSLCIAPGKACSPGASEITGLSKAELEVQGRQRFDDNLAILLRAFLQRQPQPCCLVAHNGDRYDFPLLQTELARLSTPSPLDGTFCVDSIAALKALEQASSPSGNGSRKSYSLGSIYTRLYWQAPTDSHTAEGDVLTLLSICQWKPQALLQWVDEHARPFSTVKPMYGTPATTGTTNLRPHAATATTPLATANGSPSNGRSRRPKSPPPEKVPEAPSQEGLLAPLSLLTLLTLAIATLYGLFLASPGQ
Experimental: (§1) Degradation of the dsDNA liberates free fluorophore to produce a fluorescent signal. Specifically, 7.5 p L of N-terminally His-Tev tagged full length mouse TREX1 (expressed in E. coli and purified in house) in reaction buffer (50 mM Tris, 150 mM NaCl, 2 mM DTT, 0.1 mg/mL BSA, 0.01% (w/v) Tween-20, 5 mM MgCl2, pH 7.4) was added to a 384-well Black ProxiPlate Plus (PerkinElmer) which already contained compound (150 nL) at varying concentrations as a 10 point dose-response in DMSO. The plate was incubated at 25° C. for 4 hours. Reactions were initiated by adding 7.5 μL of dsDNA substrate (Strand A: 5′ TEX615/GCT AGG CAG 3′; Strand B: 5′ CTG CCT AGC/IAbRQSp (Integrated DNA Technologies)) in reaction buffer. Final concentrations were 6 pM TREX1, 60 nM dsDNA substrate in reaction buffer with 1.0% DMSO (v/v). After 18 hours at 25° C., reactions were quenched by the addition of 2 p L of 500 mM EDTA. Final concentrations in the quenched reaction were 5.3 pM TREX1, 53 nM DNA and 59 mM EDTA in a volume of 17 p L. After a 5-minute incubation at room temperature, plates were read in an EnVision plate reader (PerkinElmer) measuring fluorescence at 615 nm following excitation w/ 570 nm light. IC50 values were calculated by comparing the measured fluorescence at 615 nm relative to control wells pre-quenched w/ EDTA (100% inhibition) and no inhibitor (0% inhibition) controls as using non-linear least square four parameter fits and either Genedata or GraphPad Prism (GraphPad Software, Inc.).

human TREX1 = molecular target: T3, human TREX1 (Homo sapiens, UniProt Q9NSU2); test: hTREX1 Biochemical Assay (fluorescence, dsDNA substrate degradation); details: full length human TREX1, 4 h pre-incubation, 18 h reaction at 25° C.
T3 construct: N-terminally His-Tev tagged full length human TREX1; made in house; host or cells: E. coli
T3 sequence (Q9NSU2 1-314): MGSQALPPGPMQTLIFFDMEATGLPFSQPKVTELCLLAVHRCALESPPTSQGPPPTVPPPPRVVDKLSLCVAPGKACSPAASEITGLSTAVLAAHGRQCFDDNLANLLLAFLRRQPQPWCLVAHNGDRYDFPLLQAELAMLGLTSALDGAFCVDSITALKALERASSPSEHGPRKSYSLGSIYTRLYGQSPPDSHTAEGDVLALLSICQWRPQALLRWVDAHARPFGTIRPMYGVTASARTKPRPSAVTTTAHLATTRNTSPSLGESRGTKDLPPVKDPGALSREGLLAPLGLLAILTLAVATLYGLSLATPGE
Experimental: as §1, with “7.5 μL” for “7.5 p L”, “length human” for “length mouse”, “were 4” for “were 6”, “were 3.5” for “were 5.3”, “17 μL.” for “17 p L.”

SMILES: C[C@H](c1nc(C(=O)Nc2cnoc2)c(O)c(=O)n1C)[C@H](c1ccccc1)c1ccccc1Cl (single isomer, unassigned) [Example 2 Isomer 2, 2-(1-(2-chlorophenyl)-1-phenylpropan-2-yl)-5-hydroxy-N-(isoxazol-4-yl)-1-methyl-6-oxo-1,6-dihydropyrimidine-4-carboxamide]
- hTREX1 vs hTREX2 selectivity (human TREX2): A (A = <25 fold selective for hTREX1)
- pIC50 (mouse TREX1): < 8.00
- pIC50 (human TREX1): 7.00 to 8.00

SMILES: C[C@H](c1nc(C(=O)Nc2cnoc2)c(O)c(=O)n1C)[C@H](c1ccccc1)c1ccccc1Cl (single isomer, unassigned) [Example 2 Isomer 4, 2-(1-(2-chlorophenyl)-1-phenylpropan-2-yl)-5-hydroxy-N-(isoxazol-4-yl)-1-methyl-6-oxo-1,6-dihydropyrimidine-4-carboxamide]
- hTREX1 vs hTREX2 selectivity (human TREX2): A (A = <25 fold selective for hTREX1)
- pIC50 (mouse TREX1): < 8.00
- pIC50 (human TREX1): < 7.00

SMILES: CC(c1nc(C(=O)Nc2cnoc2)c(O)c(=O)n1C)C(c1ccccc1)c1ccccc1C#N (single isomer, unassigned) [Example 3 Isomer 1]
- hTREX1 vs hTREX2 selectivity (human TREX2): B (B = 25 to 50 fold selective for hTREX1)
- pIC50 (mouse TREX1): < 8.00
- pIC50 (human TREX1): 8.00 to 9.00

SMILES: CC(c1nc(C(=O)Nc2cnoc2)c(O)c(=O)n1C)C(c1ccccc1)c1ccccc1C#N (single isomer, unassigned) [Example 3 Isomer 2]
- hTREX1 vs hTREX2 selectivity (human TREX2): A (A = <25 fold selective for hTREX1)
- pIC50 (mouse TREX1): < 8.00
- pIC50 (human TREX1): < 7.00

SMILES: CC(c1nc(C(=O)Nc2cnoc2)c(O)c(=O)n1C)C(c1ccccc1)c1ccccc1C#N (single isomer, unassigned) [Example 3 Isomer 3]
- hTREX1 vs hTREX2 selectivity (human TREX2): A (A = <25 fold selective for hTREX1)
- pIC50 (mouse TREX1): < 8.00
- pIC50 (human TREX1): < 7.00

SMILES: CC(c1nc(C(=O)Nc2cnoc2)c(O)c(=O)[nH]1)C(c1ccccc1C#N)c1ccccc1C#N (single isomer, unassigned) [Example 5 Isomer 1, 2-(1,1-bis(2-cyanophenyl)propan-2-yl)-5-hydroxy-N-(isoxazol-4-yl)-6-oxo-1,6-dihydropyrimidine-4-carboxamide]
- hTREX1 vs hTREX2 selectivity (human TREX2): B (B = 25 to 50 fold selective for hTREX1)
- pIC50 (mouse TREX1): 8.00 to 9.00
- pIC50 (human TREX1): > 9.00

SMILES: CC(c1nc(C(=O)Nc2cnoc2)c(O)c(=O)n1C)C(c1ccccc1)c1cc(F)ccc1C#N (single isomer, unassigned) [Example 6 Isomer 1]
- hTREX1 vs hTREX2 selectivity (human TREX2): C (C = >50 fold selective for hTREX1)
- pIC50 (mouse TREX1): < 8.00
- pIC50 (human TREX1): 8.00 to 9.00

SMILES: CC(c1nc(C(=O)Nc2cnoc2)c(O)c(=O)n1C)C(c1ccccc1)c1cc(F)ccc1C#N (single isomer, unassigned) [Example 6 Isomer 3]
- hTREX1 vs hTREX2 selectivity (human TREX2): A (A = <25 fold selective for hTREX1)
- pIC50 (mouse TREX1): < 8.00
- pIC50 (human TREX1): < 7.00

SMILES: CC(c1nc(C(=O)Nc2cnoc2)c(O)c(=O)n1C)C(c1ccccc1)c1ccc(F)cc1C#N (single isomer, unassigned) [Example 7 Isomer 1]
- hTREX1 vs hTREX2 selectivity (human TREX2): C (C = >50 fold selective for hTREX1)
- pIC50 (mouse TREX1): < 8.00
- pIC50 (human TREX1): > 9.00

SMILES: CC(c1nc(C(=O)Nc2cnoc2)c(O)c(=O)n1C)C(c1ccccc1)c1ccc(F)cc1C#N (single isomer, unassigned) [Example 7 Isomer 2]
- hTREX1 vs hTREX2 selectivity (human TREX2): A (A = <25 fold selective for hTREX1)
- pIC50 (mouse TREX1): < 8.00
- pIC50 (human TREX1): < 7.00

SMILES: CC(c1nc(C(=O)Nc2cnoc2)c(O)c(=O)n1C)C(c1ccccc1)c1ccc(F)cc1C#N (single isomer, unassigned) [Example 7 Isomer 4]
- hTREX1 vs hTREX2 selectivity (human TREX2): B (B = 25 to 50 fold selective for hTREX1)
- pIC50 (mouse TREX1): 8.00 to 9.00
- pIC50 (human TREX1): > 9.00

SMILES: CC(c1nc(C(=O)Nc2cnoc2)c(O)c(=O)n1C)C(c1ccccc1)c1cc(Cl)ccc1C#N (single isomer, unassigned) [Example 8 Isomer 3]
- hTREX1 vs hTREX2 selectivity (human TREX2): C (C = >50 fold selective for hTREX1)
- pIC50 (mouse TREX1): < 8.00
- pIC50 (human TREX1): 8.00 to 9.00

SMILES: CC(c1nc(C(=O)Nc2cnoc2)c(O)c(=O)n1C)C(c1ccccc1)c1cc(Cl)ccc1C#N (single isomer, unassigned) [Example 8 Isomer 4]
- hTREX1 vs hTREX2 selectivity (human TREX2): B (B = 25 to 50 fold selective for hTREX1)
- pIC50 (mouse TREX1): < 8.00
- pIC50 (human TREX1): 7.00 to 8.00

SMILES: CC(c1nc(C(=O)Nc2cnoc2)c(O)c(=O)n1C)C(c1ccccc1)c1ccc(Cl)cc1C#N (single isomer, unassigned) [Example 9 Isomer 1]
- hTREX1 vs hTREX2 selectivity (human TREX2): C (C = >50 fold selective for hTREX1)
- pIC50 (mouse TREX1): < 8.00
- pIC50 (human TREX1): 8.00 to 9.00

SMILES: CC(c1nc(C(=O)Nc2cnoc2)c(O)c(=O)n1C)C(c1ccccc1)c1ccc(Cl)cc1C#N (single isomer, unassigned) [Example 9 Isomer 2]
- hTREX1 vs hTREX2 selectivity (human TREX2): B (B = 25 to 50 fold selective for hTREX1)
- pIC50 (mouse TREX1): < 8.00
- pIC50 (human TREX1): < 7.00
